In US20100028259A1, “USE OF ORGANIC CATION TRANSPORTERS FOR CANCER DIAGNOSIS AND THERAPY” (The Regents of the University of California, priority 2006, published 2010):
Where two headings read alike, the source gives them in different places.

What was measured:
MDCK-MOCK cells [1] = assay: MTT drug sensitivity assay in MDCK-MOCK cells; assay type: cell-based, canine; details: read-out: IC50 MDCK-MOCK
Procedure: (§1) Cytotoxicity of the platinum-based compounds was measured by MTT (thiazolyl blue tetrazolium bromide) assay. Cells were seeded in 100 μl of the culture medium without any antibiotics in 96-well plates at a predetermined cell density. For HEK 293 cells, poly-D-lysine coated plates were used. After overnight incubation, the platinum-based compounds were then added to the culture medium to give the indicated final concentrations. For the OCT inhibitor studies, the inhibitors (i.e., disopyramide or cimetidine) were added to the medium at a specified concentration immediately before the addition of the platinum-based compounds. After incubation for a specified time period, the drug-containing medium was replaced with fresh, drug-free medium and the incubation was continued for a total of 72 hours (start from the addition of platinum-based compounds). Then, the MTT assay was performed similarly as described in Alley et al., Cancer Res., 48:589-601 (1988). […] The maximal cell growth was the cell growth in the medium without any platinum-based compounds; C is the concentration of the platinum-based compound, and γ is the slope factor.
(§2) Briefly, the cells were seeded in 96-well plates at a density of 5,000 cells/well for the transfected MDCK cells or 12,000 cells/well for the transfected HEK 293 cells. The platinum-based drugs were added on the following day. After the specified time periods of drug exposure, the drug-containing medium was replaced with fresh, drug-free medium, and the incubation was continued for a total of 72 hours (start from the time when the drug was added). After incubation, the cell growth was determined by an MTT assay. Data are expressed as mean±SD from 3 to 6 independent experiments with each performed in quadruplicate. The resistance factor (RF) was defined as the ratio of the mean IC50 value in the MOCK cells to that in the OCT-transfected cells.
(§3) Briefly, MDCK cells were seeded at a density of 5,000 cells/well in 96-well plates and exposed to the test compounds for 7 hours on the following day. After incubation for a total of 72 hours, the cell growth was determined by an MTT assay. The data for carboplatin was taken from Table 1 and was not determined simultaneously with the other compounds. The resistance factor (RF) was defined as the ratio of the mean IC50 value in MDCK-MOCK cells to that in MDCK-hOCT1 cells. Data are expressed as mean±SD from six measurements, and each measurement was performed in quadruplicate.

MDCK-hOCT1 cells [2] = assay: MTT drug sensitivity assay in MDCK-hOCT1 cells; assay type: cell-based, canine; details: read-out: IC50 MDCK-hOCT1
Procedure: as §1, with “After overnight incubation, the platinum-based compounds were then added to the culture medium to give the indicated final concentrations.” left out
as §2, §3

SW620 = assay: MTT drug sensitivity, colon cancer cell line SW620; assay type: cell-based, human
Procedure: as §1, with “After overnight incubation, the platinum-based compounds were then added to the culture medium to give the indicated final concentrations.” left out
(§4) The cell seeding density was 6,000-, 8,000-, 6,000-, 15,000-12,000- and 4,000 cells/well for HCT116, HT29, RKO, SW620, LS180, and DLD cells, respectively. When cimetidine (1.5 mM) was used, it was added to the wells immediately before the addition of the platinum-based drugs. The resistance factor (RF) was defined as the ratio of the mean IC50 value in the presence to that in the absence of cimetidine. Data are expressed as mean±SD from six measurements, and each measurement was performed in quadruplicate.

HCT116 = assay: MTT drug sensitivity, colon cancer cell line HCT116; assay type: cell-based, human
Procedure: as §1, with “After overnight incubation, the platinum-based compounds were then added to the culture medium to give the indicated final concentrations.” left out
as §4

LS180 = assay: MTT drug sensitivity, colon cancer cell line LS180; assay type: cell-based, human
Procedure: as §1, with “After overnight incubation, the platinum-based compounds were then added to the culture medium to give the indicated final concentrations.” left out
as §4

RKO = assay: MTT drug sensitivity, colon cancer cell line RKO; assay type: cell-based, human
Procedure: as §1, with “After overnight incubation, the platinum-based compounds were then added to the culture medium to give the indicated final concentrations.” left out
as §4

[3] = tested on: six colon cancer cell lines; assay: MTT drug sensitivity, summary over the six colon cancer cell lines; assay type: cell-based, human
Procedure: as §1, with “After overnight incubation, the platinum-based compounds were then added to the culture medium to give the indicated final concentrations.” left out
The resistance factor (RF) due to the presence of cimetidine was defined as the ratio of the IC50 value in the presence of cimetidine to that in the absence of cimetidine.
as §4

DLD = assay: MTT drug sensitivity, colon cancer cell line DLD; assay type: cell-based, human
Procedure: as §1, with “After overnight incubation, the platinum-based compounds were then added to the culture medium to give the indicated final concentrations.” left out
as §4

HEK-hOCT2 cells = assay: MTT drug sensitivity assay in HEK-hOCT2 cells; assay type: cell-based, human; details: drug exposure 7 hour; read-out: IC50 HEK-hOCT2
Procedure: as §1, with “After overnight incubation, the platinum-based compounds were then added to the culture medium to give the indicated final concentrations.” left out
as §2

HEK-MOCK cells [4] = assay: MTT drug sensitivity assay in HEK-MOCK cells (control of HEK-hOCT3); assay type: cell-based, human; details: drug exposure 7 hour; Table 3
Procedure: as §1, §2

HEK-hOCT3 cells = assay: MTT drug sensitivity assay in HEK-hOCT3 cells; assay type: cell-based, human; details: drug exposure 7 hour
Procedure: as §1, with “After overnight incubation, the platinum-based compounds were then added to the culture medium to give the indicated final concentrations.” left out
as §2

HT29 = assay: MTT drug sensitivity, colon cancer cell line HT29; assay type: cell-based, human
Procedure: as §1, with “After overnight incubation, the platinum-based compounds were then added to the culture medium to give the indicated final concentrations.” left out
as §4

HEK-MOCK cells [5] = assay: MTT drug sensitivity assay in HEK-MOCK cells (control of HEK-hOCT2); assay type: cell-based, human; details: drug exposure 7 hour; Table 2; read-out: IC50 HEK-MOCK
Procedure: as §1, §2

MDCK-hOCT1 cells [6] = assay: Platinum-DNA adduct formation in MDCK-hOCT1 cells; assay type: cell-based, canine; details: 1 μM, PB—SO4, 25 min
Procedure: (§5) After incubation at 37° C. and 5% CO2 for 2 hours, the cells were washed with ice-cold PBS three times and harvested. The genomic DNA was isolated from the cells and the platinum content associated with DNA was determined by ICP-MS and normalized for DNA content. Data are expressed as mean±SD from a typical experiment performed in triplicate. Two independent experiments were conducted and similar results were obtained.
(§6) After incubation, the cells were washed with ice-cold PBS three times and harvested. Genomic DNA was isolated from the harvested cells and the DNA-associated platinum content was determined by ICP-MS and normalized for the DNA content. Data are expressed as mean±SD of three measurements.
(§7) The platinum content associated with genomic DNA was determined as described in Samimi et al., Clin. Cancer Res., 10:4661-4669 (2004) with some modifications. Briefly, the cells were grown in 100 mm×20 mm dishes in the culture medium without any antibiotics to over 90% confluence. For HEK 293 cells, poly-D-lysine coated dishes were used. Then, the cells were incubated in the culture medium containing the specified concentrations of the platinum-based compounds at 37° C. in 5% CO2 for 2 hours (or 25 min as specified). In some experiments, phosphate buffer (PB: 1.06 mM KH2PO4, 2.97 mM Na2HPO4, pH 7.4) containing 155 mM NaCl (PB—Cl buffer) or 103 mM Na2SO4 (PB—SO4 buffer) was used instead of the culture medium as specified. For the OCT inhibitor study, the incubation medium (buffer) also contained disopyramide or cimetidine). If PB—Cl or PB—SO4 buffer was used, the cells were washed with the same buffer once before drug incubation. After incubation, the cells were washed with ice-cold PBS, scraped, and pelleted. Genomic DNA was isolated from the cell pellets using the Wizard® Genomic DNA Purification Kit (Promega, Madison, Wis.) following the manufacturer's instructions. Briefly, the cells were lysed with Nuclei Lysis Solution. After RNA digestion and protein precipitation, the lysates were centrifuged and the resulting supernatant was aliquoted. The genomic DNA prepared from two different aliquots of the supernatant was used for platinum and DNA content determination, respectively. For the determination of platinum, the DNA samples were treated with 70% nitric acid at 65° C. and diluted in the same way as described above. The platinum content was analyzed using ICP-MS and the DNA content was measured by absorption spectroscopy.

[7] = pKa values and species distribution of aquated oxaliplatin in incubation buffer; assay type: physicochemical; details: PB—SO4 buffer, pH 7.4, calculated from pKa values
MDCK-MOCK cells [8] = assay: Platinum-DNA adduct formation in MDCK-MOCK cells; assay type: cell-based, canine; details: 1 μM, PB—SO4, 25 min
Procedure: as §5, §6, §7

[9] = SAR study Table 4, 7 hours of drug exposure
[10] = absence of cimetidine, read-out: IC50 Control
[11] = cimetidine 1.5 mM, read-out: IC50 Cimetidine-treated
[12] = drug exposure 7 hour, MTT at 72 hours, Table 1

With `[Cl][Pt]1([Cl])[NH]C2CCCCC2[NH]1` [[Pt(S,S-DACH)Cl2]] the IC50 (MDCK-MOCK cells [1]; [9]) was 16.2 ± 3.72 µM and the IC50 (MDCK-hOCT1 cells [2]; [9]) was 0.57 ± 0.18 µM.
Work on `N.N.[Cl][Pt][Cl]` [cisplatin] yielded an IC50 (SW620; SW620, absence of cimetidine, read-out: IC50 Control) of 12.6 ± 1.95 µM, an IC50 (SW620; SW620, cimetidine 1.5 mM, read-out: IC50 Cimetidine-treated) of 22.2 ± 4.92 µM and an IC50 (HCT116; HCT116, absence of cimetidine, read-out: IC50 Control) of 5.42 ± 1.34 µM. It also gave an IC50 (HCT116; HCT116, cimetidine 1.5 mM, read-out: IC50 Cimetidine-treated) of 10.2 ± 3.23 µM, an IC50 (LS180; LS180, absence of cimetidine, read-out: IC50 Control) of 5.72 ± 1.75 µM and an IC50 (LS180; LS180, cimetidine 1.5 mM, read-out: IC50 Cimetidine-treated) of 8.27 ± 3.35 µM. The IC50 (RKO; [10]) was 8.58 ± 2.38 µM, the IC50 (RKO; [11]) was 12.5 ± 4.44 µM and the IC50 (MDCK-MOCK cells [1]; [9]) was 6.32 ± 0.74 µM. It also gave an IC50 (MDCK-MOCK cells [1]; [12]) of 19.6 ± 7.56 µM, an IC50 ([3]; absence of cimetidine, read-out: mean±SE of IC50 in the six cell lines, control) of 10.5 ± 2.02 µM and an IC50 ([3]; cimetidine 1.5 mM, read-out: mean±SE of IC50 in the six cell lines, in the presence of cimetidine) of 19.4 ± 4.32 µM. For the same molecule, the IC50 (DLD; [10]) was 18.4 ± 7.58 µM, the IC50 (DLD; [11]) was 32.3 ± 10.3 µM and the IC50 (HEK-hOCT2 cells) was 1.32 ± 0.18 µM. The IC50 (HEK-MOCK cells [4]) was 2.83 ± 0.9 µM, the IC50 (HEK-hOCT3 cells) was 2.44 ± 0.71 µM and the IC50 (MDCK-hOCT1 cells [2]; [9]) was 3.58 ± 0.3 µM. It also gave an IC50 (MDCK-hOCT1 cells [2]; [12]) of 15.4 ± 2.84 µM, an IC50 (HT29; HT29, absence of cimetidine, read-out: IC50 Control) of 12.4 ± 3.91 µM and an IC50 (HT29; HT29, cimetidine 1.5 mM, read-out: IC50 Cimetidine-treated) of 30.8 ± 11 µM. For the same molecule, the IC50 (HEK-MOCK cells [5]) was 2.95 ± 0.23 µM.
In the case of “[Pt(NH3)2(trans-1,2-(OCO)2C6H10)] [[Pt(NH3)2(trans-1,2-(OCO)2C6H10]]”, the IC50 (MDCK-MOCK cells [1]; [9]) is reported as 21.4 ± 2.94 µM and the IC50 (MDCK-hOCT1 cells [2]; [9]) is reported as 10.8 ± 2.66 µM.
In the case of `NC1CCCCC1N.O.O.[Pt+2]` [[Pt(R,R-DACH)(H2O)2]^2+], the “DNA-associated platinum level in MDCK-hOCT1” value (MDCK-hOCT1 cells [6]) is reported as 0.0139±0.0020 pmol/μg DNA, the “rb in MDCK-hOCT1” value (MDCK-hOCT1 cells [6]) is reported as 4.59±0.66×10^−6 and the “percentage of aqua/hydroxo species” value [7] is reported as 17.1%. For the same molecule, the “percentage of diaqua species” value [7] was 82.8%, the “DNA-associated platinum level in MDCK-MOCK” value (MDCK-MOCK cells [8]) was 0.0142±0.0028 pmol/μg DNA and the “rb in MDCK-MOCK” value (MDCK-MOCK cells [8]) was 4.69±0.92×10^−6.
For `NCCN.[Cl][Pt][Cl]` [[Pt(Cl2)(en)]], the IC50 (MDCK-MOCK cells [1]; [9]) was 33.2 ± 11.5 µM and the IC50 (MDCK-hOCT1 cells [2]; [9]) was 10.2 ± 4.76 µM.
